These results are taken from paper doi:10.1101/2025.08.22.671821v1, “Cross-regulation of (p)ppGpp and c-di-GMP pathways controls a cell-cycle transition” (biorxiv, 2025).

In assay [1] the target is T1, WspR (Pseudomonas aeruginosa, UniProt Q9HXT9).
T1 construct: His-tagged, pET28a-wspR, E. coli BL21(DE3), Ni-NTA and SEC
As to the kind of experiment: c-di-GMP synthesis, C18-HPLC. It counts as biochemical. Conditions: 100 µM GTP, 40 µM protein, 10 mM MgCl2, pH 7.8, 25 °C.

Assay [2] deals with T2, PleDSM (Sinorhizobium meliloti, UniProt Q92QM5).
T2 construct: gene pleD; His-tagged, pET28a-pleDSM, E. coli BL21(DE3), Ni-NTA and SEC
T2 sequence (Q92QM5 1-455): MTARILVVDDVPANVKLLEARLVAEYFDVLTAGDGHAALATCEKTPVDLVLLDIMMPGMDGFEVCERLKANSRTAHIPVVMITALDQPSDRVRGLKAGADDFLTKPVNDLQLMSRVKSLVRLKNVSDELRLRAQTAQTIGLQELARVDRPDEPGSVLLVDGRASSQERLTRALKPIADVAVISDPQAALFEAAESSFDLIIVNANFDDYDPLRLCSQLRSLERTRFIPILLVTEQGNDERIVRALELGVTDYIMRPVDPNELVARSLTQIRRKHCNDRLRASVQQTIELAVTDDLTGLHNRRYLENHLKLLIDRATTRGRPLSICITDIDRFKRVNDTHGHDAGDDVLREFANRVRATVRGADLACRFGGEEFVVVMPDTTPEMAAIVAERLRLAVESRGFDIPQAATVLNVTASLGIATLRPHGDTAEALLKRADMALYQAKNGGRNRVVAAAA
Nature of the assay: c-di-GMP synthesis, C18-HPLC. In kind it is biochemical. Conditions: 100 µM GTP, 40 µM protein, 10 mM MgCl2, pH 7.8, 25 °C.

Assay [3] has as its target T3, PleD (PleDCC) (Caulobacter vibrioides, UniProt B8GZM2).
T3 construct: full-length D1-D2-DGC, His-tagged, pET11b-pleD, E. coli BL21(DE3), Ni-NTA and SEC; unphosphorylated
T3 sequence (B8GZM2 1-454): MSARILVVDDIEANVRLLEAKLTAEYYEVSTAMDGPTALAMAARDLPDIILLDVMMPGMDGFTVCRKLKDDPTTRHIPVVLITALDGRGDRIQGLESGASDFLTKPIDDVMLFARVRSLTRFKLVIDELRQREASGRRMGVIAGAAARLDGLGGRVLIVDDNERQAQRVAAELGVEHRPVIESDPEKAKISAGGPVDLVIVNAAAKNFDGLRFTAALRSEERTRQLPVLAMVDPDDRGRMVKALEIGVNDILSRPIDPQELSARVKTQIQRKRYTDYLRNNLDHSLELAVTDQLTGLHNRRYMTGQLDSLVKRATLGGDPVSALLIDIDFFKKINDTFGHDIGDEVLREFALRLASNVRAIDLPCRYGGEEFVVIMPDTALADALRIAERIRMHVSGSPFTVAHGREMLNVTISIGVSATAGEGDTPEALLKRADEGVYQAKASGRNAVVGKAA
Nature of the assay: crystal structure ([…] and […] Å). It counts as binding. Conditions: I-site (inhibitory site), two molecules per monomer; with ppGpp (9G85) or pppGpp (9G86).

The target of assay [4] is T4, PleDAT (Agrobacterium fabrum, UniProt A9CJ98).
T4 construct: gene pleD; His-tagged, pET28a-pleDAT, E. coli BL21(DE3), Ni-NTA and SEC
T4 sequence (A9CJ98 entry or part of it): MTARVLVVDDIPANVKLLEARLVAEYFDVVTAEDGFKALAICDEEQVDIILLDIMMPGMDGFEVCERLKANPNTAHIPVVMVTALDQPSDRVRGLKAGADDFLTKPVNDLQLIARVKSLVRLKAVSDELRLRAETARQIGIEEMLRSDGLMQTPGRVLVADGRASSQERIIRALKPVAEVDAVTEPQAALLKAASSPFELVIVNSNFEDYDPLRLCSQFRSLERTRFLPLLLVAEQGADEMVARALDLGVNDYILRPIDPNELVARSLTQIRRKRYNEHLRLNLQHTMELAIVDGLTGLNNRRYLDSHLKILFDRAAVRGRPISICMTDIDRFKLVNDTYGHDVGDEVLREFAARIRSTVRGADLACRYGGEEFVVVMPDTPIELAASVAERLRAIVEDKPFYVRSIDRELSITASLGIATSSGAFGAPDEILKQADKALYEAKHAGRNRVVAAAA
As to the kind of experiment: nanoDSF. In kind it is binding. Conditions: 100 µM protein, 1 mM ligand, pH 7.8, 5 mM MgCl2. (DSF heats the sample and reads unfolding from a dye or from intrinsic fluorescence.)

Assay [5] has as its target T3, PleD (PleDCC). As to the kind of experiment: ITC. In kind it is binding.
The target in assay [6] is T3, PleD (PleDCC). Nature of the assay: c-di-GMP synthesis, C18-HPLC. It counts as biochemical.
The target in assay [7] is T4, PleDAT. Nature of the assay: c-di-GMP synthesis, C18-HPLC. In kind it is biochemical. Conditions: 100 µM GTP, 40 µM protein, 10 mM MgCl2, pH 7.8, 25 °C, 2 h.
In assay [8] the target is T2, PleDSM. Nature of the assay: c-di-GMP synthesis, C18-HPLC. In kind it is biochemical. Conditions: 100 µM GTP, 40 µM protein, 10 mM MgCl2, pH 7.8, 25 °C, 2 h.
The target in assay [9] is T1, WspR. Nature of the assay: c-di-GMP synthesis, C18-HPLC. In kind it is biochemical.

T1 sequence (Q9HXT9 entry or part of it): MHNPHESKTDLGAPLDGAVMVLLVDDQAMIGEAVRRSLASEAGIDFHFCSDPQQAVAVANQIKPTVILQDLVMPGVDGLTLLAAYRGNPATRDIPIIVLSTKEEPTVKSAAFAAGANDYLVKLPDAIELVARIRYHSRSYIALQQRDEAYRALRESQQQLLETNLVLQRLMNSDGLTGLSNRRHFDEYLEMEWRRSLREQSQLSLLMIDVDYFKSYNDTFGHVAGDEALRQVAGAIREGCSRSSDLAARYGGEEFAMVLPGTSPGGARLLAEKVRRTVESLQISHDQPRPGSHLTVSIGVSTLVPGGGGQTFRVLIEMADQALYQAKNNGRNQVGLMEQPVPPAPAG

Consider `Nc1nc2c(ncn2[C@@H]2O[C@H](COP(=O)(O)OP(=O)(O)OP(=O)(O)O)[C@@H](O)[C@H]2O)c(=O)[nH]1` [GTP], for which the “c-di-GMP synthesis, C18-HPLC” value at WspR [1] and at PleDSM [2] was “c-di-GMP production by different diguanylate cyclases (DGCs)” throughout.

With `Nc1nc2c(ncn2[C@@H]2O[C@@H]3COP(=O)(O)O[C@H]4[C@@H](O)[C@H](n5cnc6c(=O)[nH]c(N)nc65)O[C@@H]4COP(=O)(O)O[C@H]3[C@H]2O)c(=O)[nH]1` [c-di-GMP], at PleD (PleDCC) [3], the “crystal structure (2.9 and 3 Å)” value is on record as “each monomer of the (p)ppGpp-PleD structures is bound by two cyclic di-GMP molecules”.

Regarding `Nc1nc2c(ncn2[C@@H]2O[C@H](COP(=O)(O)OP(=O)(O)O)[C@@H](OP(=O)(O)OP(=O)(O)O)[C@H]2O)c(=O)[nH]1` [ppGpp], at PleDAT [4], the ΔTm entry is on record as “NanoDSF assays further confirmed PleDAT binding to (p)ppGpp”. The dissociation constant Kd at PleD (PleDCC) [5] stood at 45.4 ± 22.3 µM. The same compound showed an inhibition at 500 µM against PleD (PleDCC) [6] of over 50%. The “% inhibition at 500 μM” value on PleDAT [7] was “ppGpp and pppGpp strongly inhibited c-di-GMP production”; on PleDSM [8] it was “ppGpp and pppGpp strongly inhibited c-di-GMP production”.

In the case of `Nc1nc2c(ncn2[C@@H]2O[C@H](COP(=O)(O)OP(=O)(O)OP(=O)(O)O)[C@@H](OP(=O)(O)OP(=O)(O)O)[C@H]2O)c(=O)[nH]1` [pppGpp], the ΔTm result on PleDAT [4] is recorded as “NanoDSF assays further confirmed PleDAT binding to (p)ppGpp”. The affinity at PleD (PleDCC) [5], expressed as Kd, was 9.31 ± 1.16 µM. Further, the inhibition at 500 µM on WspR [9] is over 50%; at PleD (PleDCC) [6], over 90%. The “% inhibition at 500 μM” value on PleDAT [7] is “ppGpp and pppGpp strongly inhibited c-di-GMP production, with pppGpp showing greater potency”; at PleDSM [8] it was “ppGpp and pppGpp strongly inhibited c-di-GMP production, with pppGpp showing greater potency”.

The compound `Nc1nc2c(ncn2[C@@H]2O[C@H](COP(=O)(O)CP(=O)(O)OP(=O)(O)O)[C@@H](O)[C@H]2O)c(=O)[nH]1` [GpCpp] returned a Kd at PleD (PleDCC) [5] of 6.01 ± 1.52 µM.

Broadly, the Kd is a measure of binding affinity in units of concentration. The term inhibition denotes the share of the control response that was lost under treatment. Higher therefore signals strong suppression.
